{
  "source": "patent US9700531B2",
  "about": "“Composition comprising metformin as active ingredient for preventing or treating inflammatory bowel disease” (CATHOLIC UNIVERSITY INDUSTRY ACADEMIC COOPERATION FOUNDATION, priority 2012, dated 2017)",
  "key": {"[1]": {"tested_on": "inflammatory bowel disease-induced animal model", "assay": "Inflammatory bowel disease animal model (3.5% DSS water for a week): weight, survival, thickness of small intestine, length of large intestine", "assay_type": "in vivo, C57BL/6(H-2kb) mouse", "conditions": "for thickness of the intestine: Metformin 5 mg oral, Etanercept 100 μg subcutaneous or composite, at 3 days after induction", "text": "The inventors of the present invention first prepared the animal model with an inflammatory bowel disease in order to identify whether the Metformin of the present invention can treat an inflammatory bowel disease. For an experimental animal, a C57BL/6(H-2kb) mouse was used, and to prepare the animal model with an inflammatory bowel disease, the mouse taken with 3.5% dextran sulfate sodium (DSS) water for a week to prepare an animal model with an inflammatory bowel disease.\nThe inventors divided the experimental animals into an inflammatory bowel disease-induced animal model group, and an inflammatory bowel disease-induced animal model group, which was administered with Metformin, and for the group being administered with Metformin, 5 mg of Metformin was orally administered at 3 days after the disease was induced."}, "[2]": {"tested_on": "spleen cells of a normal mouse group", "assay": "ELISA of cytokines in culture media of treated cells of the normal mouse group", "assay_type": "cell-based", "conditions": "culture media collected at 3 days after treatment", "text": "The inventors treated Metformin and the Metformin-Etanercept (Product Name: Enbrel®) composite to the cells of the normal mouse group to identify the effects of Etanercept (Product Name: Enbrel®) and Metformin on the expression of cytokine."}, "[3]": {"tested_on": "spleen cells of a normal mouse group", "assay": "ROS measurement by FACs (ROS antibody, FITC) in spleen cells of a normal mouse group", "assay_type": "cell-based", "conditions": "cells collected at 3 days after treatment", "procedure": "The oxidative stress was known to be an important factor involved in the inflammatory responses of various autoimmune diseases. […] Enbrel®) composite and at 3 days later, each cell was collected and reacted with an ROS antibody with a FITC wavelength range, and then, was measured using fluorescence activated cell sorting (FACs)."}, "[4]": {"tested_on": "colorectal tissues of the group with an inflammatory bowel disease", "assay": "Expression of inflammatory cytokines in colorectal tissues and cells of the large intestine of mouse injected with Metformin", "assay_type": "in vivo", "text": "FIGS. 6A-6B illustrate the results of measuring the inflammatory cytokine regulations caused by Metformin in the colorectal tissues and colorectal cells of the group with an inflammatory bowel disease.\nFurthermore, the expressions of the inflammatory cytokine IL-10 and TGF-b were increased by Metformin."}, "[5]": {"tested_on": "lymph node of the group with an inflammatory bowel disease", "assay": "Expression of inflammatory cytokines in lymph node of mouse injected with Metformin", "assay_type": "in vivo", "text": "FIG. 7 illustrates the result of measuring the inflammatory cytokine regulations caused by Metformin in the lymph node tissues and cells of the group with an inflammatory bowel disease."}, "[6]": {"tested_on": "Th17 cell and regulatory Treg cell in the spleen", "assay": "Th17 cells and regulatory Treg cells in spleen of mouse injected with Metformin (confocal assay)", "assay_type": "in vivo"}, "[7]": {"tested_on": "STAT3, mTOR, AMPK, STAT5 in spleen tissue", "assay": "Signaling molecules in spleen of mouse administered with Metformin (tissue confocal, spleen cell proteins)", "assay_type": "in vivo"}, "[8]": {"tested_on": "cell line of human large intestine", "assay": "Gene expression of inflammatory cytokines in cell line of human large intestine treated with Metformin", "assay_type": "cell-based", "procedure": "The gene expressions of the inflammatory cytokines TNF-α, IL-8, and IL-1b were investigated after the cell line of human large intestine was treated with Metformin."}, "[9]": {"tested_on": "spleen cells of a normal mouse group"}, "[10]": {"conditions": "5 mg Metformin orally 3 days after induction, versus control group"}, "[11]": {"conditions": "5 mg Metformin orally, the words describe the control group relative to the Metformin group"}},
  "note": "Entries after “also recorded” stand apart in the source; their conditions may differ.",
  "data": [
    {"compound": "CN(C)C(=N)NC(=N)N", "note": "[Metformin]", "values": [
      {"measurement": "survival rates (in words)", "setting": "[1]; [10]", "result": "higher survival rates"},
      {"measurement": "weights (in words)", "setting": "[1]; [10]", "result": "increase in weights"},
      {"measurement": "survival rate", "setting": "[1]; 5 mg Metformin orally at 3 days after disease induction, control group had low survival rate", "result": 100, "unit": "%"},
      {"measurement": "length of large intestine (histological findings)", "setting": "[1]; [11]", "result": "shortened length was observed"},
      {"measurement": "thickness of small intestine (histological findings)", "setting": "[1]; [11]", "result": "narrower than the group treated with Metformin"},
      {"measurement": "thickness of the intestine", "setting": "[1]; versus control group", "result": "thicker"},
      {"measurement": "expression of IL-17 (ELISA)", "setting": "[2]", "result": "effective in inhibiting"},
      {"measurement": "ROS inhibition", "setting": "[3]", "result": "no ROS inhibitory effect; also recorded: no effects of ROS inhibition"},
      {"measurement": "expression of IL-6 in colorectal tissues (histological findings)", "setting": "[4]", "result": "considerable decrease"},
      {"measurement": "expression of IL-8 in colorectal tissues (histological findings)", "setting": "[4]", "result": "considerable decrease"},
      {"measurement": "expression of IL-17 in colorectal tissues (histological findings)", "setting": "[4]", "result": "considerable decrease"},
      {"measurement": "expression of TNF-α in colorectal tissues (histological findings)", "setting": "[4]", "result": "considerable decrease"},
      {"measurement": "gene expressions of the inflammatory cytokines in the cells of the large intestine", "setting": "[4]", "result": "considerably inhibited"},
      {"measurement": "Foxp3 (regulatory T cell factor)", "setting": "[4]; large intestine", "result": "increased"},
      {"measurement": "expression of IL-10", "setting": "[4]; large intestine", "result": "increased"},
      {"measurement": "expression of TGF-b", "setting": "[4]; large intestine", "result": "increased"},
      {"measurement": "gene expression of IL-6 in lymph node", "setting": "[5]", "result": "considerable decreases"},
      {"measurement": "gene expression of IL-17 in lymph node", "setting": "[5]", "result": "considerable decreases"},
      {"measurement": "gene expression of IL-21 in lymph node", "setting": "[5]", "result": "considerable decreases"},
      {"measurement": "gene expression of TNF-α in lymph node", "setting": "[5]", "result": "considerable decreases"},
      {"measurement": "expressions of Th17 cells in spleen", "setting": "[6]", "result": "considerably inhibited"},
      {"measurement": "regulatory T cells that express Foxp3 in spleen", "setting": "[6]", "result": "significantly increased"},
      {"measurement": "activated AMPK", "setting": "[7]; spleen cell proteins", "result": "increased"},
      {"measurement": "phosphorylated STAT3, 705, and 727", "setting": "[7]; spleen cell proteins", "result": "significantly inhibited"},
      {"measurement": "activity of STA3 in spleen cells", "setting": "[7]; tissue confocal", "result": "considerably inhibited"},
      {"measurement": "activity of mTOR in spleen cells", "setting": "[7]; tissue confocal", "result": "considerably inhibited"},
      {"measurement": "cells with the activated AMPK", "setting": "[7]; tissue confocal, spleen", "result": "increased"},
      {"measurement": "cells with the activated STAT5", "setting": "[7]; tissue confocal, spleen", "result": "increased"},
      {"measurement": "gene expression of IL-1b", "setting": "[8]", "result": "inhibited in a Metformin concentration dependent manner"},
      {"measurement": "gene expression of IL-8", "setting": "[8]", "result": "inhibited in a Metformin concentration dependent manner"},
      {"measurement": "gene expression of TNF-α", "setting": "[8]", "result": "inhibited in a Metformin concentration dependent manner"},
      {"measurement": "toxic effects (MTT assay)", "setting": "[9]", "result": "no toxic effects"}
    ]},
    {"compound": "Etanercept", "values": [
      {"measurement": "thickness of the intestine", "setting": "[1]; versus control group", "result": "thicker"},
      {"measurement": "expression of IL-17 (ELISA)", "setting": "[2]", "result": "effective in inhibiting"},
      {"measurement": "ROS inhibition", "setting": "[3]", "result": "no ROS inhibitory effect; also recorded: no effects of ROS inhibition"},
      {"measurement": "toxic effects (MTT assay)", "setting": "[9]", "result": "no toxic effects"}
    ]}
  ]
}
